In patent US20250171462A1 (NICO Therapeutics, Inc., priority 2022, published 2025):
Read-outs that look alike come from different tables or passages of the source.

Molecular target: T1, full-length SARM1 (FL-SARM1) (Homo sapiens, UniProt Q6SZW1)
T1 sequence (Q6SZW1 28-724): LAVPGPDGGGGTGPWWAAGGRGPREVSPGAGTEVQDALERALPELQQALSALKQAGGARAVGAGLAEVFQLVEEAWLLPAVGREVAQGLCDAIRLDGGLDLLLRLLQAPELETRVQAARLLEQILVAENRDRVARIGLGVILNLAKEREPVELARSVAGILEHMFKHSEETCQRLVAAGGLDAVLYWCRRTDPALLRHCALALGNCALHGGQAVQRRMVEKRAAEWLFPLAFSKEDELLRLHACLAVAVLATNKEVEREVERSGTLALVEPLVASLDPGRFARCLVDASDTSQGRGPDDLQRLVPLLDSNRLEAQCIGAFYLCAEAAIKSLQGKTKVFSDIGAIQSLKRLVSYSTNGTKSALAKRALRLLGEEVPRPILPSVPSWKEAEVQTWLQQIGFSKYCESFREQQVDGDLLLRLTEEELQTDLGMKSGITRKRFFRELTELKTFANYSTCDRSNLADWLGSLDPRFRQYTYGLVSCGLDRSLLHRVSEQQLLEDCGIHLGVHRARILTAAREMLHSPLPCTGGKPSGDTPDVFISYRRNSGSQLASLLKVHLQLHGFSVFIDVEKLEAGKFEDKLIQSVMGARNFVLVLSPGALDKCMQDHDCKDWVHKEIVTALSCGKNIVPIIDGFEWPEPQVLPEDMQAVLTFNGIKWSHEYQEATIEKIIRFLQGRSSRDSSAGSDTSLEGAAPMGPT
Experiment: FL-SARM1 cellular lysate assay (NAD/NADH-Glo detection of remaining NAD+, NMN-activated)

[1] = Activity (μM) (IC50), 11 point curve
[2] = read-out: Activity (IC50 class), 11 point curve
[3] = Activity (IC50 class), 11 point curve

| Structure (SMILES) | IC50 [1] | IC50 [2] | IC50 [3] |
| --- | --- | --- | --- |
| Cc1ccc(NC(=O)C2CC3CC[C@H]2C3)cc1-c1ccccn1 (single isomer, unassigned) [Example 139, cis-N-(4-methyl-3-pyridin-2-ylphenyl)bicyclo[2.2.1]heptane-2-carboxamide] | 0.2 µM | 0.0001 to 1 µM |  |
| Cc1ccc(NC(=O)N2C3C[C@@H]2CC[C@H]3C)cc1-c1ccccn1 (single isomer, unassigned) [Example 48, trans-2-methyl-N-(4-methyl-3-(pyridin-2-yl)phenyl)-6-azabicyclo[3.1.1]heptane-6-carboxamide] | 0.1 µM | 0.0001 to 1 µM |  |
| COc1ccc(-c2cc(NC(=O)N3C4CCCC3C4)ccc2C)nn1 [Example 60, N-(3-(6-methoxypyridazin-3-yl)-4-methyl-phenyl)-6-azabicyclo[3.1.1]heptane-6-carboxamide] | 1.1 µM |  | 1 to 10 µM |
| Cc1ccc(NC(=O)CN2C(=O)CCOc3ccccc32)cc1-c1ccccn1 [Example 134, N-(4-methyl-3-pyridin-2-ylphenyl)-2-(4-oxo-2,3-dihydro-1,5-benzoxazepin-5-yl)acetamide] | 1.9 µM |  | 1 to 10 µM |
| Cc1ccc(NC(=O)[C@H]2C[C@@H](c3ccccc3)CN2c2ncccn2)cc1-c1ncc(F)cn1 [Example 319] | 6.7 µM |  | 1 to 10 µM |
| Cc1cc(F)c(NC(=O)N2CC3CC2c2ccccc23)cc1-c1cccnn1 (single isomer, unassigned) [Example 202, N-(2-fluoro-4-methyl-5-pyridazin-3-ylphenyl)-9-azatricyclo[6.2.1.02,7]undeca-2(7),3,5-triene-9-carboxamide] | 6.7 µM | 1 to 10 µM |  |
| Cc1ccc(NC(=O)N2C[C@@H]3C[C@H]2CN3c2ccccc2)cc1-c1ccccn1 [Example 13, (1S,4S)-N-(4-methyl-3-(pyridin-2-yl)phenyl)-5-phenyl-2,5-diazabicyclo[2.2.1]heptane-2-carboxamide] | 0.7 µM | 0.0001 to 1 µM |  |
| Cc1cc(F)c(NC(=O)N2C3CCCC2C3)cc1-c1cc(Cl)cnn1 [Example 247, N-[5-(5-chloropyridazin-3-yl)-2-fluoro-4-methylphenyl]-6-azabicyclo[3.1.1]heptane-6-carboxamide] | 0.4 µM | 0.0001 to 1 µM |  |
| Cc1ccc(NC(=O)N2C3CCC2c2ccccc23)cc1-c1ccccn1 [Example 8, N-[4-Methyl-3-(2-pyridyl)phenyl]-11-azatricyclo[6.2.1.02,7]undeca-2,4,6-triene-11-carboxamide] | 0.06 µM | 0.0001 to 1 µM |  |
| O=C(Nc1ccc(C2CC2)c(-c2ccc(F)cn2)c1)[C@@H]1CC1(F)F [Example 155, (1S)-N-[4-cyclopropyl-3-(5-fluoropyridin-2-yl)phenyl]-2,2-difluorocyclopropane-1-carboxamide] | 3.5 µM |  | 1 to 10 µM |
| Cc1ccc(NC(=O)N2[C@@H]3C[C@@H](C)C[C@H]2C3)cc1-c1nccnc1F [Example 230, cis-N-[3-(3-fluoropyrazin-2-yl)-4-methylphenyl]-3-methyl-6-azabicyclo[3.1.1]heptane-6-carboxamide] | 0.04 µM | 0.0001 to 1 µM |  |
| Cc1ccc(NC(=O)N2C3CCCC2C3)cc1-c1ccccn1 [Example 17, N-(4-methyl-3-(pyridin-2-yl)phenyl)-6-azabicyclo[3.1.1]heptane-6-carboxamide] | 0.1 µM | 0.0001 to 1 µM |  |
| Cc1ccc(NC(=O)N2[C@@H]3C[C@@H](C)C[C@H]2C3)cc1-c1ncccn1 [Example 223, cis-3-methyl-N-(4-methyl-3-pyrimidin-2-ylphenyl)-6-azabicyclo[3.1.1]heptane-6-carboxamide] | 0.04 µM | 0.0001 to 1 µM |  |
| Cc1ccc(NC(=O)CC2CCC2)cc1-c1ccccn1 [Example 168, 2-cyclobutyl-N-(4-methyl-3-pyridin-2-ylphenyl)acetamide] | 1.3 µM |  | 1 to 10 µM |
| Cc1ccc(NC(=O)C2C3CCC2(c2ccn(C)n2)C3)cc1-c1ncc(F)cn1 (mixture of isomers) [Example 317] | 1 µM |  | 1 to 10 µM |
| Cc1ccc(NC(=O)N2C3C[C@@H](C)C[C@H]2C3)cc1-c1nccnn1 [Example 215, cis-3-methyl-N-(4-methyl-3-(1,2,4-triazin-3-yl)phenyl)-6-azabicyclo[3.1.1]heptane-6-carboxamide] | 0.03 µM | 0.0001 to 1 µM |  |
| Cc1ccc(-c2cc(NC(=O)[C@@H]3CC3(F)F)ccc2C)nc1 [Example 162, (1S)-2,2-difluoro-N-[4-methyl-3-(5-methylpyridin-2-yl)phenyl]cyclopropane-1-carboxamide] | 2.5 µM |  | 1 to 10 µM |
| C[C@@H]1C[C@@H]2C[C@H](C1)N2C(=O)Nc1cc(-c2nccnn2)c(Cl)cc1F [Example 323] | 0.2 µM | 0.0001 to 1 µM |  |
| O=C(Nc1ccc(C(F)(F)F)c(-c2ccc(F)cn2)c1)N1C2CCC1c1ccccc12 [Example 57, N-(3-(5-fluoropyridin-2-yl)-4-(trifluoromethyl)phenyl)-1,2,3,4-tetrahydro-1,4-epiminonaphthalene-9-carboxamide] | 3.7 µM |  | 1 to 10 µM |
| Cc1ccc(NC(=O)N2C3C[C@@H](C)C[C@H]2C3)cc1-c1cncc(Cl)n1 [Example 217, cis-N-(3-(6-chloropyrazin-2-yl)-4-methylphenyl)-3-methyl-6-azabicyclo[3.1.1]heptane-6-carboxamide] | 0.04 µM | 0.0001 to 1 µM |  |
| CC(=O)N1[C@H](C)CC[C@@H]1C(=O)Nc1ccc(C)c(-c2ncc(F)cn2)c1 [Example 286, (2R,5R)-1-acetyl-N-[3-(5-fluoropyrimidin-2-yl)-4-methylphenyl]-5-methylpyrrolidine-2-carboxamide] | 1.7 µM |  | 1 to 10 µM |
| Cc1ccc(NC(=O)N2C3C[C@H](C#N)C[C@@H]2C3)cc1-c1ccccn1 [Example 74, cis-3-cyano-N-(4-methyl-3-(pyridin-2-yl)phenyl)-6-azabicyclo[3.1.1]heptane-6-carboxamide] | 0.3 µM | 0.0001 to 1 µM |  |
| Cc1cc(F)c(NC(=O)N2CC3CC2c2ccccc23)cc1-c1cccnn1 (single isomer, unassigned) [Example 201, N-(2-fluoro-4-methyl-5-pyridazin-3-ylphenyl)-9-azatricyclo[6.2.1.02,7]undeca-2(7),3,5-triene-9-carboxamide] | 2 µM |  | 1 to 10 µM |
| O=C(Nc1ccc(C(F)(F)F)c(-c2ncc(F)cn2)c1)C1C2CCC1CC2 (stereo not drawn) [Example 303, N-(3-(5-fluoropyrimidin-2-yl)-4-(trifluoromethyl)phenyl) bicyclo[2.2.1]heptane-e-7-carboxamide] | 0.5 µM | 0.0001 to 1 µM |  |
| Cc1cc(F)c(NC(=O)N2[C@@H]3C[C@@H](C)C[C@H]2C3)cc1-c1nccnn1 [Example 240, cis-N-[2-fluoro-4-methyl-5-(1,2,4-triazin-3-yl)phenyl]-3-methyl-6-azabicyclo[3.1.1]heptane-6-carboxamide] | 0.09 µM | 0.0001 to 1 µM |  |
| O=C(Nc1ccc(C(F)(F)F)c(-c2ccc(F)cn2)c1)[C@@H]1CC1(F)F [Example 125, (1S)-2,2-difluoro-N-[3-(5-fluoropyridin-2-yl)-4-(trifluoromethyl)phenyl]cyclopro-pane-1-carboxamide] | 3.5 µM |  | 1 to 10 µM |
| Cc1ccc(NC(=O)C2(O)CCCC2)cc1-c1ccccn1 [Example 115, 1-hydroxy-N-(4-methyl-3-pyridin-2-ylphenyl)cyclopentane-1-carboxamide] | 36 µM |  | > 10 µM |
